Reference: patent US20240390408A1, “METHOD OF TREATING HEPATITIS C VIRUS IN PATIENTS” (Altesa BioSciences, Inc., priority 2023, published 2024)
Read-outs that look alike come from different tables or passages of the source.

Experiment: Tissue concentrations of Formula I and its metabolites in Göttingen pigs after a single oral or intravenous dose (LC-MS/MS)
Format: in vivo
Conditions: for Exposure in the lung and spleen, fold lower than liver and kidneys: after PO dosing with Formula I; for concentration at 2 h / concentration at 3 h / concentration at 12 h / concentration at 24 h: both sexes, Göttingen, pig (minipig)
Description: Tissue samples were collected at 3, 12, and 24 hours post-dose (hpd) for the oral dose and 2 and 12 hpd for the intravenous dose, snap-frozen in liquid nitrogen, and stored at −60 to −90° C. until shipment on dry ice for analysis by LC-MS/MS.
Animals were weighed the day prior to dosing to determine the dosing volume.
The compound of Formula I was dissolved in a PEG 400/DI water (60%/40% v/v) vehicle for oral dosing. For IV dosing the compound of Formula I was dissolved in a PEG 400/Cremophor RH 40/Saline (40%/10%/50% v/v) vehicle and passed through a sterile filter. […] Animals were euthanized by euthanasia solution administration under sedation, if necessary (e.g., acepromazine and or/Telazol®), followed by a Testing Facility SOP approved method to ensure death (e.g., exsanguination). Tissues were collected from two animals per sex per timepoint. Tissue samples, including the brain, heart, kidney, liver, lung, spleen, pancreas, bone marrow, duodenum, jejunum, and colon, were collected in duplicate (approximately 50±20 mg each) and placed into two separate reinforced homogenization tubes per organ (one tissue sample per tube). The exact weight (in milligrams) of each sample was recorded. Tissues samples were flash frozen in liquid nitrogen and stored at −60 to −90° C. until shipment on dry ice for analysis by LC-MS/MS.
Mobile phase A consisted of 50 mM ammonium bicarbonate buffer in HPLC grade water pH 9.8 and mobile phase B consisted of pure acetonitrile. […] Mass spectrometry analysis was performed on a QTrap 7500 Mass Spectrometer (Sciex, Framingham, MA, USA) using negative mode electrospray ionization (ESI) in multiple reaction monitoring (MRM) mode. Data analysis was performed using SCIEX OS Software (Sciex, Framingham, MA, USA).
Tissue samples were collected at 3, 12, and 24 hours post-dose for the oral dose and 2 and 12 hour post-dose for the intravenous dose.

[1] = kidney, single intravenous bolus of Formula I 25 mg/kg, 12 hpd, read-out: Tissue concentration, kidney
[2] = kidney, single oral dose of Formula I 125 mg/kg, 3 hpd, read-out: Tissue concentration, kidney
[3] = kidney, single oral dose of Formula I 125 mg/kg, 12 hpd, read-out: Tissue concentration, kidney
[4] = kidney, single oral dose of Formula I 125 mg/kg, 24 hpd, read-out: Tissue concentration, kidney
[5] = liver, single intravenous bolus of Formula I 25 mg/kg, 2 hpd, read-out: Tissue concentration, liver
[6] = liver, single intravenous bolus of Formula I 25 mg/kg, 12 hpd, read-out: Tissue concentration, liver
[7] = liver, single oral dose of Formula I 125 mg/kg, 12 hpd, read-out: Tissue concentration in Göttingen pig liver (Table 7)
[8] = liver, single oral dose of Formula I 125 mg/kg, 12 hpd, read-out: Tissue concentration, liver
[9] = liver, single oral dose of Formula I 125 mg/kg, 24 hpd, read-out: Tissue concentration in Göttingen pig liver (Table 7)
[10] = liver, single oral dose of Formula I 125 mg/kg, 24 hpd, read-out: Tissue concentration, liver
[11] = lung, single intravenous bolus of Formula I 25 mg/kg, 2 hpd, read-out: Tissue concentration, lung
[12] = lung, single intravenous bolus of Formula I 25 mg/kg, 12 hpd, read-out: Tissue concentration, lung
[13] = lung, single oral dose of Formula I 125 mg/kg, 3 hpd, read-out: Tissue concentration, lung
[14] = lung, single oral dose of Formula I 125 mg/kg, 12 hpd, read-out: Tissue concentration, lung
[15] = spleen, single intravenous bolus of Formula I 25 mg/kg, 2 hpd, read-out: Tissue concentration, spleen
[16] = spleen, single intravenous bolus of Formula I 25 mg/kg, 12 hpd, read-out: Tissue concentration, spleen
[17] = spleen, single oral dose of Formula I 125 mg/kg, 3 hpd, read-out: Tissue concentration, spleen
[18] = brain, single intravenous bolus of Formula I 25 mg/kg, 2 hpd
[19] = brain, single intravenous bolus of Formula I 25 mg/kg, 12 hpd
[20] = brain, single oral dose of Formula I 125 mg/kg, 3 hpd
[21] = brain, single oral dose of Formula I 125 mg/kg, 12 hpd
[22] = brain, single oral dose of Formula I 125 mg/kg, 24 hpd
[23] = heart, single intravenous bolus of Formula I 25 mg/kg, 12 hpd
[24] = heart, single oral dose of Formula I 125 mg/kg, 3 hpd
[25] = heart, single oral dose of Formula I 125 mg/kg, 24 hpd
[26] = kidney, single intravenous bolus of Formula I 25 mg/kg, 2 hpd
[27] = kidney, single oral dose of Formula I 125 mg/kg, 3 hpd
[28] = liver, single oral dose of Formula I 125 mg/kg, 3 hpd
[29] = liver, single oral dose of Formula I 125 mg/kg, 24 hpd
[30] = spleen, single oral dose of Formula I 125 mg/kg, 3 hpd

C[C@H](NP(=O)(O)OC[C@H]1O[C@@H](n2ccc(=O)[nH]c2=S)C(C)(O)C1O)C(=O)O (stereo in doubt) [Formula II]
Exposure in the lung and spleen, fold lower than liver and kidneys: about 10 fold | concentration at 2 h (brain, single intravenous bolus of Formula I 25 mg/kg, 2 hpd, read-out: Tissue concentration, brain): 4.9 ± 9.8 ng/g | concentration at 3 h (brain, single oral dose of Formula I 125 mg/kg, 3 hpd, read-out: Tissue concentration, brain): 27 ± 23.4 ng/g | concentration at 2 h (heart, single intravenous bolus of Formula I 25 mg/kg, 2 hpd, read-out: Tissue concentration, heart): 292 ± 139 ng/g | concentration at 12 h (heart, single intravenous bolus of Formula I 25 mg/kg, 12 hpd, read-out: Tissue concentration, heart): 7.85 ± 9.5 ng/g | concentration at 3 h (heart, single oral dose of Formula I 125 mg/kg, 3 hpd, read-out: Tissue concentration, heart): 780 ± 375 ng/g | concentration at 12 h (heart, single oral dose of Formula I 125 mg/kg, 12 hpd, read-out: Tissue concentration, heart): 3.33 ± 6.65 ng/g | concentration at 2 h (kidney, single intravenous bolus of Formula I 25 mg/kg, 2 hpd, read-out: Tissue concentration, kidney): 6920 ± 3290 ng/g | concentration at 12 h [1]: 39.3 ± 32.1 ng/g | concentration at 3 h [2]: 10300 ± 2300 ng/g | concentration at 12 h [3]: 180 ± 172 ng/g | concentration at 24 h [4]: 30 ± 12.8 ng/g | concentration at 2 h [5]: 694 ± 385 ng/g | concentration at 12 h [6]: 17.9 ± 16.4 ng/g | concentration at 3 h (liver, single oral dose of Formula I 125 mg/kg, 3 hpd, read-out: Tissue concentration in Göttingen pig liver (Table 7)): 29200 ± 12200 nM | concentration at 3 h (liver, single oral dose of Formula I 125 mg/kg, 3 hpd, read-out: Tissue concentration, liver): 12400 ± 5150 ng/g | concentration at 12 h [7]: 475 ± 727 nM | concentration at 12 h [8]: 202 ± 309 ng/g | concentration at 24 h [9]: 107 ± 60.6 nM | concentration at 24 h [10]: 45.6 ± 25.8 ng/g | concentration at 2 h [11]: 786 ± 134 ng/g | concentration at 12 h [12]: 31.8 ± 5.52 ng/g | concentration at 3 h [13]: 1630 ± 667 ng/g | concentration at 12 h [14]: 16.5 ± 12.8 ng/g | concentration at 24 h (lung, single oral dose of Formula I 125 mg/kg, 24 hpd, read-out: Tissue concentration, lung): 2.25 ± 4.51 ng/g | concentration at 2 h [15]: 530 ± 284 ng/g | concentration at 12 h [16]: 24.8 ± 7.34 ng/g | concentration at 3 h [17]: 1390 ± 301 ng/g | concentration at 12 h (spleen, single oral dose of Formula I 125 mg/kg, 12 hpd, read-out: Tissue concentration, spleen): 11.9 ± 9.24 ng/g | concentration at 24 h (spleen, single oral dose of Formula I 125 mg/kg, 24 hpd, read-out: Tissue concentration, spleen): 2.27 ± 4.53 ng/g | Tissue concentration, brain [18]: 4.90 ± 9.80 ng/g | Tissue concentration, brain [19]: not observable and BQL | Tissue concentration, brain [20]: 27.0 ± 23.4 ng/g | Tissue concentration, brain [21]: BQL | Tissue concentration, brain [22]: BQL | Tissue concentration, heart [23]: 7.85 ± 9.50 ng/g | Tissue concentration, heart [24]: 780 ± 375 ng/g | Tissue concentration, heart [25]: BQL | Tissue concentration, kidney [26]: 6920 ± 3290 ng/g | Tissue concentration, kidney (kidney, single intravenous bolus of Formula I 25 mg/kg, 12 hpd): 39.3 ± 32.1 ng/g | Tissue concentration, kidney [27]: 10300 ± 2300 ng/g | Tissue concentration, liver [28]: 12400 ± 5150 ng/g | Tissue concentration, liver [29]: 45.6 ± 25.8 ng/g | Tissue concentration, lung (lung, single oral dose of Formula I 125 mg/kg, 3 hpd): 1630 ± 667 ng/g | Tissue concentration, spleen [30]: 1390 ± 301 ng/g

CC1(O)[C@@H](O)[C@@H](COP(=O)(O)O)O[C@H]1n1ccc(=O)[nH]c1=S (stereo partly drawn) [Formula III]
Exposure in the lung and spleen, fold lower than liver and kidneys: about 10 fold | concentration at 24 h (125 mg/kg, liver and kidney, 24 hpd after oral dosing with Formula I, read-out: Concentration measurable in the liver and kidney): ~500 nM | concentration at 12 h [1]: 276 ± 78.1 ng/g | concentration at 3 h [2]: 14100 ± 5050 ng/g | concentration at 12 h [3]: 824 ± 432 ng/g | concentration at 24 h [4]: 85.5 ± 18.1 ng/g | concentration at 2 h [5]: 13100 ± 3070 ng/g | concentration at 12 h [6]: 62.7 ± 77.7 ng/g | concentration at 12 h [7]: 1640 ± 924 nM | concentration at 12 h [8]: 582 ± 328 ng/g | concentration at 24 h [9]: 537 ± 229 nM | concentration at 24 h [10]: 190 ± 81 ng/g | concentration at 2 h [11]: 2040 ± 883 ng/g | concentration at 12 h [12]: 357 ± 207 ng/g | concentration at 3 h [13]: 303 ± 94.4 ng/g | concentration at 12 h [14]: 55.2 ± 64.6 ng/g | concentration at 2 h [15]: 240 ± 28.3 ng/g | concentration at 12 h [16]: 58.9 ± 14.7 ng/g | concentration at 3 h [17]: 118 ± 10.8 ng/g | Tissue concentration, brain [18]: BQL | Tissue concentration, brain [19]: BQL | Tissue concentration, brain [20]: BQL | Tissue concentration, brain [21]: BQL | Tissue concentration, brain [22]: BQL | Tissue concentration, heart (heart, single intravenous bolus of Formula I 25 mg/kg, 2 hpd): 89.9 ± 65.5 ng/g | Tissue concentration, heart [23]: BQL | Tissue concentration, heart [24]: 34.0 ± 39.9 ng/g | Tissue concentration, heart (heart, single oral dose of Formula I 125 mg/kg, 12 hpd): BQL | Tissue concentration, heart [25]: BQL | Tissue concentration, kidney [26]: above the limit of quantitation and AQL | Tissue concentration, kidney [27]: 14100 ± 5050^ ng/g | Tissue concentration, kidney (kidney, single oral dose of Formula I 125 mg/kg, 24 hpd): 85.5 ± 18.1 ng/g | Tissue concentration, liver (liver, single intravenous bolus of Formula I 25 mg/kg, 2 hpd): 13100 ± 3070 ng/g | Tissue concentration in Göttingen pig liver (Table 7) [28]: AQL | Tissue concentration, liver [28]: above the limit of quantitation and AQL | Tissue concentration, liver [29]: 190 ± 81.0 ng/g | Tissue concentration, lung (lung, single intravenous bolus of Formula I 25 mg/kg, 12 hpd): 357 ± 207 ng/g | Tissue concentration, lung (lung, single oral dose of Formula I 125 mg/kg, 24 hpd): BQL | Tissue concentration, spleen (spleen, single intravenous bolus of Formula I 25 mg/kg, 12 hpd): 58.9 ± 14.7 ng/g | Tissue concentration, spleen [30]: 118 ± 10.8 ng/g | Tissue concentration, spleen (spleen, single oral dose of Formula I 125 mg/kg, 12 hpd): BQL | Tissue concentration, spleen (spleen, single oral dose of Formula I 125 mg/kg, 24 hpd): BQL
